The experiment concerns the target VPS35 (Mus musculus, UniProt Q9EQH3+Q9QZ88). The experiment can be described thus: VPS35 levels in Neuro2a cells by Western blot (screening of amino guanidine hydrazones). In kind it is cell-based. Also on record: endogenous in cells; host or cells: Neuro2a. Particulars: 10 μM, 48 hours, independent cultures n=3. Here is the method:
To functionally screen the majority of synthetized amino guanidine hydrazones of the invention and determine their effects on the retromer complex, we incubated Neuro2a cells with each synthetized molecule at the concentration of 10 μM.
The test was executed in triplicate for each tested compound of the invention, cells lysates were established after 48 hours' incubation, and levels of VPS35 were normalized on the housekeeping gene β-Actin by Western blot. We observed a preliminary SAR among the compounds.
Fold changes are calculated over normalized VPS35 levels measured in vehicle-treated cells.
Neuro2a cells were seeded on 12 wells multiwell at the concentration of 100 000 cells/well. Cells were incubated with each compound, including the standard R55, at 10 μM for 48 hours. Cells were then washed in PBS 1× and lysed in a buffer containing Tris-HCl 10 mM pH8, EDTA 1 mM pH8, NaCl 100 mM, NP40 1%, with protease inhibitor cocktail (Sigma) 1×. Using a cell scraper total lysates were collected from each well, quantified with BCA (BCA protein assay, Thermofisher). Five μg were resolved on precast 10% acrylamide gel (Biorad). Proteins were transferred to a PVDF membrane (Millipore) and western blot were performed using the following antibodies: goat αVPS35 (1:1000), mouse α-βActin (1:10000). Detection of proteins was obtained by a chemiluminescence detection kit (PerkinElmer).
(In general: A western blot detects proteins with antibodies after separation by electrophoresis.)
`C(=NNc1nc2ccccc2[nH]1)c1cccc(C=NNc2nc3ccccc3[nH]2)c1` [Compound 2z, 1,3-Bis-(N2N3-benzimidazolidinyl) guanidine phenyl hydrazone]: the “Mean fold changes (VPS35 levels normalized on β-Actin, over vehicle-treated cells)” value was found to be 1.105. On to `N=C(N)NN=Cc1cccc(C=NNC(=N)N)c1Br` [Compound 2b, 2-Bromo-1,3-bis-aminoguanidine phenyl hydrazone], for which the “Mean fold changes (VPS35 levels normalized on β-Actin, over vehicle-treated cells)” value is recorded as 1.300. In the case of `CCCCNC(=N)NN=Cc1cc(C=NNC(=N)NCCCC)cc(NC(=O)c2ccc(C)cc2)c1` [Compound 2w, 1-p-Tolylamido-3,5-bis-(N3-n-butylamino) guanidine phenyl hydrazone] it was 0.625; in that of `N=C(NN=Cc1cccc(C=NNC(=N)N2CCCC2)c1)N1CCCC1` [Compound 2v, 1,3-bis-(N3-pyrrolidinyl) guanidine phenyl hydrazone], 1.978. As to `Cc1ccc(C(=O)Nc2cc(C=NNC(=N)N)cc(C=NNC(=N)N)c2)cc1` [Compound 2m, 1-p-Tolylamido-3,5-bis-aminoguanidine phenyl hydrazone], the “Mean fold changes (VPS35 levels normalized on β-Actin, over vehicle-treated cells)” value is 0.974.

Turning to `CCCCOc1ccc(C=NNC(=N)N)cc1C=NNC(=N)N` [Compound 2f, 1-(n-Butoxy)-2,4-bis-aminoguanidine phenyl hydrazone], the “Mean fold changes (VPS35 levels normalized on β-Actin, over vehicle-treated cells)” value is 1.415. As for `COC(=O)c1cc(C=NNC(=N)N)cc(C=NNC(=N)N)c1` [Compound 2p, 1-Carbomethoxy-3,5-bis-amino guanidine phenyl hydrazone], the “Mean fold changes (VPS35 levels normalized on β-Actin, over vehicle-treated cells)” value is 1.582. Next, `N=C(N)NN=Cc1cc(C=NNC(=N)N)cc(C(=O)N2CCN(c3ccccc3)CC2)c1` [Compound 2q, 5-(N4-phenylpiperazinyl)carboxamido-3,5-bis-amino guanidine phenyl hydrazone]: 1.784; `Cc1ccc(S(=O)(=O)Nc2cc(C=NNC(=N)N)cc(C=NNC(=N)N)c2)cc1` [Compound 2o, 1-p-Tolylsulfonamido-3,5-bis-aminoguanidine phenyl hydrazone]: 1.501; `COc1cc(C=NNC(=N)N)cc(C=NNC(=N)N)c1` [Compound 2i, 1-Methoxy-3,5-bis-aminoguanidine phenyl hydrazone]: 1.310. In the case of `COc1ccc(C=NNC(=N)N)cc1C=NNC(=N)N` [Compound 2e, 1-Methoxy-2,4-bis-amino guanidine phenyl hydrazone] it was 2.070; in that of `CC(=O)Nc1cc(C=NNC(=N)N)cc(C=NNC(=N)N)c1` [Compound 2l, 1-Acetamido-3,5-bis-aminoguanidine phenyl hydrazone], 1.660. Next, `N=C(N)NN=Cc1cc(C=NNC(=N)N)cc(C=NNC(=N)N)c1` [Compound 2r, 1-3,5-tris-amino guanidine phenyl hydrazone]: 1.154; `CS(=O)(=O)Nc1cc(C=NNC(=N)N)cc(C=NNC(=N)N)c1` [Compound 2n, 1-Methylsulfonamido-3,5-bis-aminoguanidine phenyl hydrazone]: 1.280. Consider `C/C(=N\NC(=N)N)c1cccc(/C(C)=N/NC(=N)N)c1` [Compound (VIII), 1′,3′-Dimethyl-1,3-bis-aminoguanidine phenyl hydrazone, reference compound], for which the “Mean fold changes (VPS35 levels normalized on β-Actin, over vehicle-treated cells)” value came out at 0.600.

(Values after patent publication US20220213030A1, “AMINOGUANIDINE HYDRAZONES AS RETROMER STABILIZERS USEFUL FOR TREATING NEUROLOGICAL DISEASES” (OSPEDALE SAN RAFFAELE SRL, priority 2019, published 2022).)
